Among the data in patent US9809574B2, “Isoindoline or isoquinoline compounds, a process for their preparation and pharmaceutical compositions containing them” (LES LABORATOIRES SERVIER, priority 2013, dated 2017) are IC50 values, retold here.

Broadly, the IC50 is the concentration that inhibits the measured activity by half.

The target of one experiment is Bcl-2 protein (histag-Bcl-2, UniProtKB P10415) (Homo sapiens (Human), UniProt P10415). The experiment is described as follows: Inhibition of Bcl-2 by the fluorescence polarisation technique. The conditions noted are these: fluorescence polarisation test; incubation for 2 hours; read-out: IC50 (nM) Bcl-2 FP. It counts as binding. An excerpt:
For partial inhibitors, the percentage fluorescence polarisation inhibition for a given concentration of the test compound is indicated.

The subject of experiment [1] is RS4; 11 leukaemia cell line. In words: In vitro cytotoxicity, Microculture Tetrazolium Assay (MTT). Format: cell-based. The note with it: Homo sapiens, 11 cells exposed for 48 hours. On the procedure:
The cytotoxicity studies were carried out on the RS4; 11 leukaemia cell line and on H146 small Cell Lung Carcinoma cell line. The cells are distributed onto microplates and exposed to the test compounds for 48 hours. The cell viability is then quantified by a colorimetric assay, the Microculture Tetrazolium Assay (Cancer Res., 1987, 47, 939-942).

Chain of Bcl-2 protein (P10415 whole entry): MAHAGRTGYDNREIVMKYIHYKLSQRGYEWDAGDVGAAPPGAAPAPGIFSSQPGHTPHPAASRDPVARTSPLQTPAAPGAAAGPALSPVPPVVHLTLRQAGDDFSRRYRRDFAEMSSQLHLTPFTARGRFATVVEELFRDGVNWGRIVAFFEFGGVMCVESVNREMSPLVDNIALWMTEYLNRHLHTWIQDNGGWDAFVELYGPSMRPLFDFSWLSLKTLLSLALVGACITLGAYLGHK

For the molecule `C[C@@H]1Cc2ccccc2CN1C(=O)c1cc2c(cc1-c1cc(C(=O)N(C)c3ccc(O)cc3)c3n1CCCC3)CCN(C(=O)c1ccccc1)C2` [Example 35, 3-{2-Benzoyl-7-[(3R)-3-methyl-1,2,3,4-tetrahydroisoquinoline-2-carbonyl]-1,2,3,4-tetrahydroisoquinolin-6-yl}-N-(4-hydroxyphenyl)-N-methyl-5,6,7,8-tetrahydroindolizine-1-carboxamide], the IC50 was 4.7 nM on Bcl-2 protein and 8.5 nM in experiment [1].
In the same order, the values of `C[C@@H]1Cc2ccccc2CN1C(=O)c1cc2c(cc1-c1cc(C(=O)N(C)c3ccc(O)cc3)c3n1CCCC3)CCN(C(=O)Cc1ccccc1)C2` [Example 36, N-(4-Hydroxyphenyl)-N-methyl-3-{7-[(3R)-3-methyl-1,2,3,4-tetrahydroisoquinoline-2-carbonyl]-2-(2-phenylacetyl)-1,2,3,4-tetrahydroisoquinolin-6-yl}-5,6,7,8-tetrahydroindolizine-1-carboxamide] are 4.8 nM and 6.2 nM.
In the same order, the values of `C[C@@H]1Cc2ccccc2CN1C(=O)c1cc2c(cc1-c1cc(C(=O)N(C)c3ccc(O)cc3)c3n1CCCC3)CCN(C(=O)CCc1ccccc1)C2` [Example 37, N-(4-Hydroxyphenyl)-N-methyl-3-{7-[(3R)-3-methyl-1,2,3,4-tetrahydroisoquinoline-2-carbonyl]-2-(3-phenylpropanoyl)-1,2,3,4-tetrahydroisoquinolin-6-yl}-5,6,7,8-tetrahydroindolizine-1-carboxamide] are 4.9 nM and 18 nM.
As for `CN(C(=O)c1cc(-c2cc3c(cc2C(=O)N2Cc4ccccc4C[C@H]2CN2CCOCC2)CN(S(=O)(=O)Cc2ccccc2)C3)n2c1CCCC2)c1ccc(O)cc1` [Example 38, N-(4-Hydroxyphenyl)-N-methyl-3-{6-[(3S)-3-(morpholin-4-ylmethyl)-1,2,3,4-tetrahydroisoquinoline-2-carbonyl]-2-phenylmethanesulfonyl-2,3-dihydro-1H-isoindol-5-yl}-5,6,7,8-tetrahydroindolizine-1-carboxamide], the IC50 at Bcl-2 protein is 23 nM; in experiment [1] it was 532 nM.
The corresponding values for `C[C@@H]1Cc2ccccc2CN1C(=O)c1cc2c(cc1-c1cc(C(=O)N(C)c3ccc(O)cc3)c3n1CCCC3)CCN(S(=O)(=O)c1ccccc1)C2` [Example 39, 3-[2-(Benzenesulfonyl)-7-[(3R)-3-methyl-1,2,3,4-tetrahydroisoquinoline-2-carbonyl]-1,2,3,4-tetrahydroisoquinolin-6-yl]-N-(4-hydroxyphenyl)-N-methyl-5,6,7,8-tetrahydroindolizine-1-carboxamide] are 14 nM and 106 nM.
With `C[C@@H]1Cc2ccccc2CN1C(=O)c1cc2c(cc1-c1cc(C(=O)N(C)c3ccc(O)cc3)c3n1CCCC3)CCN(S(=O)(=O)Cc1ccccc1)C2` [Example 40, N-(4-Hydroxyphenyl)-N-methyl-3-{7-[(3R)-3-methyl-1,2,3,4-tetrahydroisoquinoline-2-carbonyl]-2-phenylmethanesulfonyl-1,2,3,4-tetrahydroisoquinolin-6-yl}-5,6,7,8-tetrahydroindolizine-1-carboxamide], the IC50 on Bcl-2 protein was found to be 3.6 nM; in experiment [1], 34 nM.
In the same order, the values of `C[C@@H]1Cc2ccccc2CN1C(=O)c1cc2c(cc1-c1cc(C(=O)N(C)c3ccc(O)cc3)c3n1CCCC3)CCN(S(=O)(=O)c1ccc3ccccc3c1)C2` [Example 41, N-(4-Hydroxyphenyl)-N-methyl-3-{7-[(3R)-3-methyl-1,2,3,4-tetrahydroisoquinoline-2-carbonyl]-2-(naphthalene-2-sulfonyl)-1,2,3,4-tetrahydroisoquinolin-6-yl}-5,6,7,8-tetrahydroindolizine-1-carboxamide] are 26 nM and 78 nM.
In the case of `CN(C(=O)c1cc(-c2cc3c(cc2C(=O)N2Cc4ccccc4C[C@H]2CN2CCOCC2)CN(C(=O)Cc2cccnc2)C3)n2c1CCCC2)c1ccc(O)cc1` [Example 42, N-(4-Hydroxyphenyl)-N-methyl-3-{6-[(3S)-3-(morpholin-4-ylmethyl)-1,2,3,4-tetrahydroisoquinoline-2-carbonyl]-2-[2-(pyridin-3-yl)acetyl]-2,3-dihydro-1H-isoindol-5-yl}-5,6,7,8-tetrahydroindolizine-1-carboxamide], the IC50 at Bcl-2 protein was 38 nM; in experiment [1], above 150 nM.
The corresponding values for `C[C@@H]1Cc2ccccc2CN1C(=O)c1cc2c(cc1-c1cc(C(=O)N(c3ccccc3)c3ccc(O)cc3)c3n1CCCC3)CN(C(=O)OC(C)(C)C)C2` [Example 43, tert-Butyl 5-{1-[(4-hydroxyphenyl)(phenyl)carbamoyl]-5,6,7,8-tetrahydroindolizin-3-yl}-6-[(3R)-3-methyl-1,2,3,4-tetrahydroisoquinoline-2-carbonyl]-2,3-dihydro-1H-isoindole-2-carboxylate] are 77 nM and 502 nM.
In the same order, the values of `C[C@@H]1Cc2ccccc2CN1C(=O)c1cc2c(cc1-c1cc(C(=O)N(c3ccccc3)c3ccc(O)cc3)c3n1CCCC3)CNC2` [Example 44, N-(4-Hydroxyphenyl)-3-{6-[(3R)-3-methyl-1,2,3,4-tetrahydroisoquinoline-2-carbonyl]-2,3-dihydro-1H-isoindol-5-yl}-N-phenyl-5,6,7,8-tetrahydroindolizine-1-carboxamide] are 13 nM and 443 nM.
In the same order, the values of `C[C@@H]1Cc2ccccc2CN1C(=O)c1cc2c(cc1-c1cc(C(=O)N(C)c3ccc(O)cc3)c3n1CCCC3)CN(C(=O)Oc1ccccc1)C2` [Example 45, Phenyl 5-{1-[(4-hydroxyphenyl)(methyl)carbamoyl]-5,6,7,8-tetrahydroindolizin-3-yl}-6-[(3R)-3-methyl-1,2,3,4-tetrahydroisoquinoline-2-carbonyl]-2,3-dihydro-1H-isoindole-2-carboxylate] are 15 nM and 20 nM.
`C[C@@H]1Cc2ccccc2CN1C(=O)c1cc2c(cc1-c1cc(C(=O)N(C)c3ccc(O)cc3)c3n1CCCC3)CCN(C(=O)Oc1ccccc1)C2` [Example 46, Phenyl 6-{1-[(4-hydroxyphenyl)(methyl)carbamoyl]-5,6,7,8-tetrahydroindolizin-3-yl}-7-[(3R)-3-methyl-1,2,3,4-tetrahydroisoquinoline-2-carbonyl]-1,2,3,4-tetrahydroisoquinoline-2-carboxylate]: the IC50 is 3.7 nM at Bcl-2 protein and 2.8 nM in experiment [1].
In the same order, the values of `C[C@@H]1Cc2ccccc2CN1C(=O)c1cc2c(cc1-c1cc(C(=O)N(C)c3ccc(O)cc3)c3n1CCCC3)CCN(C(=O)OC(C)(C)C)C2` [Example 47, tert-Butyl 6-{1-[(4-hydroxyphenyl)(methyl)carbamoyl]-5,6,7,8-tetrahydroindolizin-3-yl}-7-[(3R)-3-methyl-1,2,3,4-tetrahydroisoquinoline-2-carbonyl]-1,2,3,4-tetrahydroisoquinoline-2-carboxylate] are 12 nM and 45 nM.
On to `C[C@@H]1Cc2ccccc2CN1C(=O)c1cc2c(cc1-c1cc(C(=O)N(C)c3ccc(O)cc3)c3n1CCCC3)CCN(C(=O)NC(C)(C)C)C2` [Example 48, N-tert-Butyl-6-{1-[(4-hydroxyphenyl)(methyl)carbamoyl]-5,6,7,8-tetrahydroindolizin-3-yl}-7-[(3R)-3-methyl-1,2,3,4-tetrahydroisoquinoline-2-carbonyl]-1,2,3,4-tetrahydroisoquinoline-2-carboxamide], for which the IC50 on Bcl-2 protein was 8.7 nM; in experiment [1], 40 nM.
The corresponding values for `C[C@@H]1Cc2ccccc2CN1C(=O)c1cc2c(cc1-c1cc(C(=O)N(C)c3ccc(O)cc3)c3n1CCCC3)CN(C(=O)COc1ccc(Cl)cc1)C2` [Example 49, 3-{2-[2-(4-Chlorophenoxy)acetyl]-6-[(3R)-3-methyl-1,2,3,4-tetrahydroisoquinoline-2-carbonyl]-2,3-dihydro-1H-isoindol-5-yl}-N-(4-hydroxyphenyl)-N-methyl-5,6,7,8-tetrahydroindolizine-1-carboxamide] are 23 nM and 58 nM.
In the same order, the values of `C[C@@H]1Cc2ccccc2CN1C(=O)c1cc2c(cc1-c1cc(C(=O)N(C)c3ccc(O)cc3)c3n1CCCC3)CN(C(=O)COc1cccc(Cl)c1)C2` [Example 50, 3-{2-[2-(3-Chlorophenoxy)acetyl]-6-[(3R)-3-methyl-1,2,3,4-tetrahydroisoquinoline-2-carbonyl]-2,3-dihydro-1H-isoindol-5-yl}-N-(4-hydroxyphenyl)-N-methyl-5,6,7,8-tetrahydroindolizine-1-carboxamide] are 18 nM and 26 nM.
Consider `COc1ccc(CC(=O)N2Cc3cc(C(=O)N4Cc5ccccc5C[C@H]4C)c(-c4cc(C(=O)N(C)c5ccc(O)cc5)c5n4CCCC5)cc3C2)cc1` [Example 51, N-(4-Hydroxyphenyl)-3-{2-[2-(4-methoxyphenyl)acetyl]-6-[(3R)-3-methyl-1,2,3,4-tetrahydroisoquinoline-2-carbonyl]-2,3-dihydro-1H-isoindol-5-yl}-N-methyl-5,6,7,8-tetrahydroindolizine-1-carboxamide], for which the IC50 on Bcl-2 protein is 5.5 nM; in experiment [1], 23 nM.
On to `C[C@@H]1Cc2ccccc2CN1C(=O)c1cc2c(cc1-c1cc(C(=O)N(C)c3ccc(O)cc3)c3n1CCCC3)CN(C(=O)COc1ccccc1)C2` [Example 52, N-(4-Hydroxyphenyl)-N-methyl-3-{6-[(3R)-3-methyl-1,2,3,4-tetrahydroisoquinoline-2-carbonyl]-2-(2-phenoxyacetyl)-2,3-dihydro-1H-isoindol-5-yl}-5,6,7,8-tetrahydroindolizine-1-carboxamide], for which the IC50 at Bcl-2 protein came to 3.8 nM; in experiment [1], 56 nM.
